Assay results reported in US20130190394A1, “Applications Of Arctigenin In Formulating Drugs For Preventing Or Treating Diseases Related To Red Blood Cell Reduction” (priority 2010, published 2013).
Structures can show the parent of a compound that is named as a salt.

Experiments:
[1] = Body weight and tolerability of tumor-bearing mice during administration; format: in vivo, Kunming mice; settings: for Body weight before administration: mouse, in vivo
Protocol: (§1) The murine cancer cell line s180 was cultured in 1640 culture medium at 37° C., 5% CO2, sub-cultured every two days on average till logarithmic growth phase and then prepared into single cell suspension at 3.0×10^7 cell/ml with physiological saline. The cell suspension was injected into abdominal cavity of mice under sterile conditions. The mice were sacrificed by cervical dislocation at 7 days after inoculation when the abdominal cavity expanded obviously, and then soaked in a flask with 75% ethanol for 2-3 min. The sterilized mice were placed on a superclean bench with abdomen exposed. The ascites were taken with sterile injectors and stored in sterile vials for further use. The ascites was counted by Trypan blue staining, and then diluted to 2.0×10^7 cell/ml with physiological saline. The animals were inoculated with the dilutions in the right armpit at 0.2 ml/animal.
(§2) The inoculated animals were divided randomly into following six groups with 10 animals each group (F:M=1:1): • 1. Model Group (Group M): receiving peritoneal injection of 0.9% physiological saline; • 2. Docetaxel Group (Group D): receiving 75 mg/m^2/d Docetaxel; • 3. Imatinib Mesylate Group (Group IM): receiving 222.2 mg/m^2/d Imatinib Mesylate; • 4. Arctigenin Group (Group A): receiving 10 mg/m^2/d Arctigenin; • 5. Docetaxel plus Arctigenin Group (Group D+A): receiving 75 mg/m^2/d Docetaxel plus 10 mg/m^2/d Arctigenin; • 6. Imatinib Mesylate plus Arctigenin Group (Group IM+A): receiving 222.2 mg/m^2/d Imatinib Mesylate plus 10 mg/m^2/d Arctigenin.
(§3) Docetaxel and Imatinib Mesylate were administered via tail vein injection at dosages of 20 ml/kg. Arctigenin was administered via peritoneal injection at a dosage of 10 ml/kg. The administration was given to each group once per day for 10 days in total. During the experimental process, the animals were observed everyday for their diets, survivals and behaviors and weighted every day. At the end of the experiment, the animals were anaesthetized and anatomize to draw blood from abdominal vena cava for blood routine examination, including total white blood cell count, total platelet count and neutrophil count.

[2] = system: Tumor-bearing mice (murine cancer cell line s180); assay: Effects of Arctigenin on myelosuppression caused by chemotherapy in tumor-bearing mice (blood routine examination); format: in vivo, Kunming mice; settings: for Neutrophil / White Blood Cells / platelet: s180 tumor-bearing mice, 10 days once per day, Docetaxel 75 mg/m^2/d, Imatinib Mesylate 222.2 mg/m^2/d tail vein, Arctigenin 10 mg/m^2/d peritoneal, n=10
Protocol: as §1, with “The” for “The murine cancer cell line s180 was cultured in 1640 culture medium at 37° C., 5% CO2, sub-cultured every two days on average till logarithmic growth phase and then prepared into single cell suspension at 3.0×10^7 cell/ml with physiological saline. The”
as §2, with “Imatinib Mesylate Group (Group IM): receiving 222.2 mg/m^2/d Imatinib Mesylate; • 4.” left out, “6.” for “6. Imatinib Mesylate plus Arctigenin Group (Group IM+A): receiving 222.2 mg/m^2/d Imatinib Mesylate plus 10 mg/m^2/d Arctigenin.”
as §3

NOD mouse = assay: Effects of Arctigenin on white blood cell and platelet of NOD mouse; format: in vivo, NOD/Ltj mice; settings: for White Blood Cells / platelets: NOD/Ltj mice, n=13
Description: Non-obese diabetic or NOD mice is a large mouse strain, including NOD/Scid, NOD/Ltj mice and the like. Yi Feng (Yi Feng, et al., “In vitro Expansion of Cord Blood Megakaryocyte Progenitor”, ACTA Academiae Medicinae Sinicae, Vol. 27, NO. 2, pp 199-204) directly expanded megakaryocyte progenitor from cord blood CD34+ cells by using thrombopoietin (TPO), interleukin-11 (IL-11) and heparin in combination. Intravenous infusion of the megakaryocytes expanded for 7 days (at a concentration of 5×10^6) into NOD/SCID mice received pre-treatment of radiation could accelerate the recovery of platelet and white blood cell account and improved the survival of the mice.
1.1 Animals: 52 NOD/Ltj mice (purchased from Vital River Laboratory Animal Technology Co., Ltd., Beijing; Laboratory Animal NO: SCXK (BJ) 2006-2009), female, Age: 5 weeks, Body weight: 16-20 g.
After one week of adaptive feeding, healthy NOD mice aged of 5 weeks were divided randomly into 4 groups: • I. Model Control Group: 13 animals; • II. Positive Control Group: 13 animals receiving gavage of interleukin at dose of 10.0 mg/kg every day; • III. Low-dose Arctigenin Group: 13 animals receiving gavage of […] at dose of 30 mg/kg every day; • IV. High-dose Arctigenin Group: 13 animals receiving gavage of […] at dose of 60 mg/kg every day.
The administration was given consecutively to each group once per day, and stopped after 15 days. The animals were then anaesthetized (3% pentobarbital sodium via intraperitoneal injection at 0.1˜0.15 ml/animal) and 1 ml blood was taken via abdominal vena cava for blood routine examination.

[3] = system: mice received ^60Co radiation at 4Gy; assay: Effects of Arctigenin on blood cell counts of mice under 60Co radiation; format: in vivo, Kunming mice
Description: 1.1 Animals: Kunming mice (purchased from National Institute for the Control of Pharmaceutical and Biological Products, China; Laboratory Animal NO: SCXK II-00-0010; female/male ratio at 1:1; Age: 7 weeks; […] The rest mice were included in the experiment. The mice fulfilled the experimental requirements after radiation were divided randomly into the following groups of: model group, group of burdock extract and Arctigenin group (each group: n=10; F/M=1:1). Each group was subjected to treatment or administration as follows: • 1. Normal Group (Group N): peritoneal injection of 0.9% physiological saline at a volume of 10 ml/kg; • 2. Model Group (Group M): peritoneal injection of 0.9% physiological saline at a dose of […]; • 3. Group of burdock Extract (Group E): peritoneal injection of water […] of Arctium lappa at a dose of 3.5 ml/kg/d; • 4. Arctigenin Group (Group A): peritoneal injection of 10 mg/kg/d Arctigenin at a volume of 10 ml/kg. Said burdock extract was prepared by: 1) placing burdock in a pot, adding water till the plant was immerged; 2) soaking burdock for 30 min for promoting the extraction of the effective components; 3) rapidly heating till boiling, fully boiling for 1-3 min, further heating for 20-30 min for concentration, and filtrating through sterile gauzes into a beaker; and 4) mixing the first dose with re-extracted agents uniformly after the first extraction for balancing their effects. 200 ml water extracts were prepared from 1 kg burdock. The administration was given to each group once per day for 10 days in total. During the experimental process, the animals were observed everyday for their diets, survivals and behaviors and weighted every day. At the end of the experiment, the animals were anaesthetized and anatomize to take blood from abdominal vena cava for blood routine examination, including total white blood cell count and total platelet count.

[4] = high-dose, gavage 60 mg/kg every day for 15 days
[5] = low-dose, gavage 30 mg/kg every day for 15 days
[6] = mice after 60Co 4 Gy whole body radiation, peritoneal injection once per day for 10 days, Arctigenin 10 mg/kg/d, burdock water extract 3.5 ml/kg/d, n=10

Row | Neutrophil numbers in comparison with Group M ([2]; tumor-bearing mice, in words) | SMILES | Body weight before administration [1] [g] | Neutrophil [2] | White Blood Cells [2] | platelet [2] | White blood cell counts and platelet counts compared with model group (NOD mouse; NOD mice, low-dose and high-dose groups, in words) | White Blood Cells (NOD mouse; [4]) | platelets (NOD mouse; [4]) | White Blood Cells (NOD mouse; [5]) | platelets (NOD mouse; [5]) | Total white blood cell count and platelet count in comparison with the model group ([3]; 60Co 4 Gy radiated mice, P<0.01 or P<0.05, in words) | White Blood Cells [3, 6] | platelet [3, 6] | Toxic or side effects ([1]; tumor-bearing mice, 10 days administration, in words) | Total white blood cell count and total neutrophil count compared with the Docetaxel group and the imatinib mesylate group ([2]; tumor-bearing mice, P<0.01, in words) | Total white blood cell count and total neutrophil count compared with the model group ([2]; tumor-bearing mice, P<0.01 or P<0.05, in words)
1 | decreased significantly | Cc1ccc(NC(=O)c2ccc(CN3CCN(C)CC3)cc2)cc1Nc1nccc(-c2cccnc2)n1 [Group IM, Imatinib Mesylate] | 21.3 ± 2.3 | 0.695 ± 0.09 10^9/L | 2.703 ± 0.37 10^9/L | 432.9 ± 34.8 10^9/L | – | – | – | – | – | – | – | – | – | – | –
2 | – | COc1cc(C[C@H]2C(=O)OC[C@@H]2Cc2ccc(OC)c(OC)c2)ccc1O [Arctigenin] | 21.1 ± 3.0 | 1.316 ± 0.15^#**^$$ 10^9/L | 3.530 ± 0.31^##**^$$ 10^9/L | 687.4 ± 37.3^## 10^9/L | significantly higher | 4.225 ± 0.51^##$ 10^9/L | 780.2 ± 46.5^##$$ 10^9/L | 3.242 ± 0.45^#$ 10^9/L | 730.5 ± 34.6^##$ 10^9/L | increase in both total white blood cell count and the platelet count | 4.225 ± 0.51^##$ 10^9/L | 596.2 ± 72.5^#$ 10^9/L | does not have significant toxic or side effects | significant increases in total white blood cell count and total neutrophil count | increase in both the total white blood cell count and the total neutrophil count
3 | decreased significantly | CC(=O)O[C@@]12CO[C@@H]1C[C@H](O)[C@@]1(C)C(=O)[C@H](O)C3=C(C)[C@@H](OC(=O)[C@H](O)[C@@H](NC(=O)OC(C)(C)C)c4ccccc4)C[C@@](O)([C@@H](OC(=O)c4ccccc4)[C@H]21)C3(C)C [Group D, Docetaxel] | 21.2 ± 1.8 | 0.670 ± 0.12 10^9/L | 2.773 ± 0.46 10^9/L | 450.6 ± 30.5 10^9/L | – | – | – | – | – | – | – | – | – | – | –
